Experimental data published in PubChem BioAssay AID1996.
Converted amounts (≈) assume the structure as drawn.

conditions: buffer; pH 7.4; 200.0 µM

SMILES	solubility kinetic
O=C(CSCc1ccccc1F)NCc1ccc(F)cc1	> 46.1 µg/mL
N#Cc1cc([N+](=O)[O-])ccc1NCCc1ccccn1	> 40.2 µg/mL
N#CCCN(Cc1cccs1)C(=O)c1ccc(Cl)cc1	> 45.7 µg/mL
COc1ccc(C)cc1NC(=O)NCCCCc1ccccc1	0.4 µg/mL (≈ 1.28 µM)
N#Cc1cn(N2CCCCC2)c(=O)[nH]c1=O	> 33 µg/mL
Cc1cc(=O)oc2cc(OCC(=O)Nc3ccccc3C(=O)O)ccc12	52.9 µg/mL (≈ 150 µM)
CC1(CCC(=O)N2CCCC(Nc3ccc(F)cc3)C2)CC1 (stereo not given)	> 45.7 µg/mL
CCOC(=O)C1CCN(C(=O)COc2cccc3ccccc23)CC1	43.2 µg/mL (≈ 127 µM)
Cc1ccc(NC(=O)COc2ccc(Br)cc2CO)cc1S(=O)(=O)N1CCOCC1	21.1 µg/mL (≈ 42.3 µM)
Cc1ccc(CNC(=O)c2ccc(S(=O)(=O)N(C)C)cc2)n1C	48.6 µg/mL (≈ 145 µM)
Cc1cc(C(=O)Nc2ccccc2)oc(=O)c1	25.9 µg/mL (≈ 113 µM)
COc1cccc(NC(=O)c2cc(=O)c3ccccc3o2)c1	1.9 µg/mL (≈ 6.43 µM)
COc1ccccc1CCNS(=O)(=O)c1cn(C)nc1C	> 46.4 µg/mL
CCN(CC(=O)NCc1ccc(F)cc1)C(=O)c1ccc(C)o1	> 47.8 µg/mL
COc1ccccc1CN1CCCCCC1.O=C(O)C(=O)O	40.8 µg/mL
COc1cccc(NC(=O)c2cc3ccccc3cc2OC)c1	2.8 µg/mL (≈ 9.11 µM)
O=C1OCc2nc3cc4c(cc3c(-c3ccc(F)cc3)c21)OCO4	1.2 µg/mL (≈ 3.71 µM)
COc1ccc(C2NC(=O)CCC2[N+](=O)[O-])c(OC)c1 (stereo not given)	> 42 µg/mL
O=C(Cc1ccccc1[N+](=O)[O-])NCc1ccco1	> 39 µg/mL
Cc1sc2ncnc(SCC(=O)Nc3ccc(S(=O)(=O)N4CCOCC4)cc3)c2c1C	5.4 µg/mL (≈ 11.3 µM)

SMILES	solubility kinetic
O=C(COC(=O)/C=C/c1ccc(C(F)(F)F)cc1)NCc1ccco1	35.7 µg/mL (≈ 101 µM)
COc1ccccc1N1CCN(C(=O)c2cc(C)on2)CC1	> 45.2 µg/mL
COC(=O)c1cc(=O)c2cccc(OC)c2[nH]1	> 35 µg/mL
Cc1ccc(C(=O)N2CCN(c3ccc([N+](=O)[O-])cc3)CC2)o1	40.2 µg/mL (≈ 127 µM)
CC(=O)NCCC(=O)N1CCCC(N(C)CCc2ccccc2)C1 (stereo not given)	> 49.7 µg/mL
O=C(COc1cccnc1[N+](=O)[O-])NCc1ccccc1	> 43.1 µg/mL
COc1ccc(CCNC(=O)c2ccccc2SC)cc1	27.4 µg/mL (≈ 90.9 µM)
COc1ccccc1-n1nc(C)c(-c2ccccc2)c1N	> 41.9 µg/mL
O=C(CSc1ccc([N+](=O)[O-])cc1)Nc1cccc(S(=O)(=O)N2CCOCC2)c1	17.1 µg/mL (≈ 39.1 µM)
O=C(O)CSC(=S)N1CC2CC(C1)c1cccc(=O)n1C2 (stereo not given)	> 48.7 µg/mL
Cc1ccc(OCC(=O)Oc2ccccc2[N+](=O)[O-])cc1	17.4 µg/mL (≈ 60.6 µM)
CC1=CC(C)(C)N(C(=O)Nc2ccccc2)c2ccccc21	7.8 µg/mL (≈ 26.7 µM)
Cc1ccc(C(=O)NC(=O)CSc2nncn2C)cc1	> 43.6 µg/mL
CC1NC(=S)N(Cc2ccccc2)C1=O (stereo not given)	31.9 µg/mL (≈ 145 µM)
CCc1ccccc1N1C(=O)C2C3C=CC(CC3)C2C1=O (stereo not given)	> 42.2 µg/mL
COc1cc2c(cc1OC)CN(CC(O)c1ccccc1)CC2 (stereo not given)	44.3 µg/mL (≈ 141 µM)
Cc1ccc(C(=O)OC(C)CN2CCOCC2)cc1.Cl (stereo not given)	38.9 µg/mL
CC(OC(=O)c1cccs1)C(=O)NCCc1ccccc1 (stereo not given)	> 45.5 µg/mL
O=C(COC(=O)Cn1cnc2ccccc21)Nc1ccccc1C(F)(F)F	> 56.6 µg/mL
CCc1ccc(NC(=O)NCc2cccnc2)cc1	> 38.3 µg/mL

SMILES	solubility kinetic
S=C(NCCc1ccccc1)Nc1ccccc1N1CCOCC1	> 51.2 µg/mL
CC1CCCN(C(=O)COC(=O)Cn2cnc3ccccc32)C1 (stereo not given)	> 47.3 µg/mL
N#C/C(=C(/O)c1cccs1)c1nc2ccccc2[nH]1	1.2 µg/mL (≈ 4.49 µM)
CCOC(=O)Cc1csc(NC(=O)CSc2nccn2C)n1	> 51.1 µg/mL
Cc1ccc(N(CCO)C(=S)Nc2ccccc2)cc1	> 43 µg/mL
CSc1ncccc1C(=O)N1CCN(C(=O)c2ccccc2)CC1	> 51.2 µg/mL
CCC(C)NC(=O)C1=CCN(S(=O)(=O)c2ccc(C)cc2)CC1 (stereo not given)	43.5 µg/mL (≈ 129 µM)
Cn1ccnc1C1CCCCN1Cc1nc(Cc2ccccc2F)no1 (stereo not given)	49.9 µg/mL (≈ 140 µM)
O=C1NC(=O)N(Cc2ccccc2F)C1=O	> 33.3 µg/mL
Cc1cc(C(=O)COC(=O)c2ccc(F)cc2)c(C)n1C	1.2 µg/mL (≈ 4.15 µM)
O=[N+]([O-])c1ccc(N2CCc3ccccc3C2)nc1	7.6 µg/mL (≈ 29.8 µM)
COc1ccc(N=C(C)c2c(O)[nH]c(=O)[nH]c2=O)cc1	5 µg/mL (≈ 18.2 µM)
Cc1ccccc1S(=O)(=O)Cc1ccc(C(=O)NC2CC2)o1	> 47.9 µg/mL
O=S(=O)(/N=C(/c1ccccc1)N1CCOCC1)c1ccc(F)cc1F	> 55 µg/mL
CCOc1ncccc1C(=O)OC(C)C(=O)Nc1ccc(CC)cc1 (stereo not given)	7.1 µg/mL (≈ 20.7 µM)
CCc1sc(C(=O)Nc2ccc(N3CCOCC3)cc2)cc1C	8.1 µg/mL (≈ 24.5 µM)
O=C(NCCNC(=O)c1ccccn1)c1ccccc1	36 µg/mL (≈ 134 µM)
O=C1[C@@H]2CSCN2C(=O)CN1Cc1ccccc1F	> 42 µg/mL
CC(C)Nc1nc(-c2cccnc2)nc(-c2ccccc2)c1C#N	< 0.1 µg/mL
CCOC(=O)Cc1cnc(N)s1	27.6 µg/mL (≈ 148 µM)
